Results published in patent US10760052B2, “Method of inhibiting tau phosphorylation” (priority 2012, dated 2020).
Where “and” joins values, the source holds several entries; their conditions need not be identical. Equal values may be shown once. Read-outs that look alike come from different tables or passages of the source.

Legend:
[1] = molecular target: VAKGL pentapeptide of filamin A (FLNA) of SEQ ID NO: 1 (Homo sapiens, UniProt P21333); assay: FITC-NLX-based FLNA screening assay (inhibition of FITC-naloxone binding to Bn-VAKGL on streptavidin plates); details: for Percent binding inhibition, preliminary study: 100 nM frozen-stored FITC-NLX, average of two runs
α7nAChR-FLNA complex [2] = molecular target: T1, α7nAChR-FLNA complex (Rattus norvegicus, UniProt A0A8I5ZV49); assay: Aβ42-induced α7nAChR-FLNA association in rat frontal cortical synaptosomes (co-immunoprecipitation/Western blot); assay type: cell-based; details: 1 or 10 nM compound, simultaneously or 10 minutes prior to Aβ42 (0.1 μM)
T1 construct: from tissue; host or cells: rat frontal cortex synaptosomes
Source text: The α7nAChR-FLNA complexes in the solubilized synaptosomes were immunoprecipitated with immobilized anti-FLNA and the α7nAChR and FLNA levels in the anti-FLNA immunoprecipitates determined by Western blotting (FIG. 2A) and quantified by densitometry (FIG. 2B). n=3. […] The letter designation “M” that accompanies many of the “C-series” compounds is omitted from FIG. 2, the remaining figures and most discussions of the figures and compounds hereinafter for ease in expression. Structural formulas of the compounds used in this and the other figures are provided hereinafter. […]

α7nAChR-FLNA complex [3] = molecular target: T2, α7nAChR-FLNA complex (Homo sapiens, UniProt P36544); assay type: cell-based
T2 construct: In postmortem control frontocortical tissue, Aβ42-induced FLNA recruitment to α7nAChRs was mimicked; from tissue; host or cells: postmortem frontal cortex of control subjects
Method: Incubation continued for 1 hour in the dark. […] The reaction was terminated by the addition of 1.5 ml of ice-cold Ca^2+-free K-R, and slices were collected by a brief centrifugation.
Solubilized immunoprecipitates derived from co-immunoprecipitation assays were separated by either 7.5 or 10% SDS-PAGE and then electrophoretically transferred to nitrocellulose membranes. The membranes were washed with PBS and blocked overnight (about 18 hours) at 4° C. with 10% milk in PBS with 0.1% Tween®-20 (PBST). Following three 5-minute washes with 0.1% PBST, the membranes were incubated at room temperature for 2 hours with antibody of choice at 1:500-1:1,000 dilutions. After three 2-minute washes in 0.1% PBST, membranes were incubated for 1 hour with anti-species IgG-HRP (1:5,000 dilution) and washed with 0.1% PBST three times, 2-minutes each. Immunoreactivity was visualized by reacting with chemiluminescent reagent (Pierce-ENDOGEN) for exactly 5 minutes and immediately exposing to X-ray film. Specific bands were quantified by densitometric scanning (GS-800 calibrated densitometer, Bio-Rad Laboratories).

mu opiate receptor (MOR) = molecular target: T3, mu opiate receptor (MOR) (Rattus norvegicus, UniProt P33535); assay type: biochemical; details: for MOR agonist activity ([35S]GTPγS binding), compound as agonist: average of two runs
T3 construct: from tissue; host or cells: striatum (membrane preparation)

[4] = 1 μM agent, relative to 0.1 μM Aβ42

T1 sequence (A0A8I5ZV49 entry or part of it, one chain of several): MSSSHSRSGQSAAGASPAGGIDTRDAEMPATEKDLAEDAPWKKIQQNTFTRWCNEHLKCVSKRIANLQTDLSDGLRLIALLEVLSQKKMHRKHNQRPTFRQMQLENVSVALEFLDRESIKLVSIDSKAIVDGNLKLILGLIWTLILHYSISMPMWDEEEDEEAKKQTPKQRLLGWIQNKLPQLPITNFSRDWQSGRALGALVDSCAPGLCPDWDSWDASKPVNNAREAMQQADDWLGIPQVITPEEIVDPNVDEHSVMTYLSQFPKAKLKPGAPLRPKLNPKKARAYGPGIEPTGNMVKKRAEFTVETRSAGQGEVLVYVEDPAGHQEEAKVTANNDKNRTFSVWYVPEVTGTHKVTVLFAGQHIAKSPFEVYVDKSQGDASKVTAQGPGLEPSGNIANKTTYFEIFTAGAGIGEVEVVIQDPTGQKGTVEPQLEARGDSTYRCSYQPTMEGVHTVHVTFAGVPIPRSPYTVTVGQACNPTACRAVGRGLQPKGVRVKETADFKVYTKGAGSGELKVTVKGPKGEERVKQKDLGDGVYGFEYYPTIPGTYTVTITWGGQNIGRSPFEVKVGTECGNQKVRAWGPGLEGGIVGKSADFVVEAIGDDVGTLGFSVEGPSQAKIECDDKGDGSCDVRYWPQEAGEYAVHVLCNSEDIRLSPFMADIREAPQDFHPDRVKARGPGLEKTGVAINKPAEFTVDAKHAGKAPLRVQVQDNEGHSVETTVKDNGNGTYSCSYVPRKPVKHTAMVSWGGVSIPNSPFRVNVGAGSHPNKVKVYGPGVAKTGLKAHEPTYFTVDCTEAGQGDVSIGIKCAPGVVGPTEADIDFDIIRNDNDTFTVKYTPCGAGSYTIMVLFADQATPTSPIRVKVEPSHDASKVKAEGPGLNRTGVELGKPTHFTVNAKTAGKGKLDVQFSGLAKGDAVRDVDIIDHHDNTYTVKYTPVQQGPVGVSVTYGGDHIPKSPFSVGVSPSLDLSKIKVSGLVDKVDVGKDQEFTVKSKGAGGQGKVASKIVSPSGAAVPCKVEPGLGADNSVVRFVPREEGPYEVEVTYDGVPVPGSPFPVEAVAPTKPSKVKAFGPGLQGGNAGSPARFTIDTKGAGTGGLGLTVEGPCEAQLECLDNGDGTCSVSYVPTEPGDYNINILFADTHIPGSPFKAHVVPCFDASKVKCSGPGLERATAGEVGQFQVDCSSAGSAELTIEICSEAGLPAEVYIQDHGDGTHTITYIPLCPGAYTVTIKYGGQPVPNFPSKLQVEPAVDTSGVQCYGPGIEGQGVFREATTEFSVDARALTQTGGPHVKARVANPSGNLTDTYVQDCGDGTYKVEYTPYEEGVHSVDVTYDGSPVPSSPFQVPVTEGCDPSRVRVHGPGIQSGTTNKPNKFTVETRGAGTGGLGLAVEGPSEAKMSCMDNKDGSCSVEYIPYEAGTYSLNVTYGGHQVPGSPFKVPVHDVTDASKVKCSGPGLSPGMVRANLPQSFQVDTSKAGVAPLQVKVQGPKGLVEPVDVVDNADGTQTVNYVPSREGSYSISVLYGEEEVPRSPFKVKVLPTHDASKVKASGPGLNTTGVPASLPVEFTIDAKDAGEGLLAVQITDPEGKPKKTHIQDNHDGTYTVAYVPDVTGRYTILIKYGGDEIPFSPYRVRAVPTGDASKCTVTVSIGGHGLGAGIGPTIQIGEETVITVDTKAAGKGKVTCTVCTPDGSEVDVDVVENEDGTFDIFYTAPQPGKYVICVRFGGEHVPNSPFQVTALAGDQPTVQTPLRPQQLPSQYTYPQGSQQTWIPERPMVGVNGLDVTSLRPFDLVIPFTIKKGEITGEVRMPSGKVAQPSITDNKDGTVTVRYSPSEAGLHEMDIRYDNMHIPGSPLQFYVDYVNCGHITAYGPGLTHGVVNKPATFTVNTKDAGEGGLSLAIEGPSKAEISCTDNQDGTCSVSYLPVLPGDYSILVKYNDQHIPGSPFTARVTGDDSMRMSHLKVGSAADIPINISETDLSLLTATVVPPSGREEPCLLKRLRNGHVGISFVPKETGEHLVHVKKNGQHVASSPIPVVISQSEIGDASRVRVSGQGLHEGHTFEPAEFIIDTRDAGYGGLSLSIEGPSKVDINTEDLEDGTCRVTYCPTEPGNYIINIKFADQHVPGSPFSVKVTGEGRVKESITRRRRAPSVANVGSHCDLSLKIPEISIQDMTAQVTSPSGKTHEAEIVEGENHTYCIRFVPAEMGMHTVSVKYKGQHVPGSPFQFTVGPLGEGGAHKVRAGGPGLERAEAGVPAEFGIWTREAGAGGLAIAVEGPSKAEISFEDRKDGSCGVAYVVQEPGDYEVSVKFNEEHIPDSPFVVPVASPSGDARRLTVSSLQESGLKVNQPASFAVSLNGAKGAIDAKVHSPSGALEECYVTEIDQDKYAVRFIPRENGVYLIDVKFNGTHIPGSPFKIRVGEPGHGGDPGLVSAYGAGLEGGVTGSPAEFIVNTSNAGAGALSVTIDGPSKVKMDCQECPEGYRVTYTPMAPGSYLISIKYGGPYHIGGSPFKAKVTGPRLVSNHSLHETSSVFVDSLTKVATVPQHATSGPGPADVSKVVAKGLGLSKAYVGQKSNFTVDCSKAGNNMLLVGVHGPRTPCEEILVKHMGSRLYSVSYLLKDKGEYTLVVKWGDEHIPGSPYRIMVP
T3 sequence (P33535 whole entry): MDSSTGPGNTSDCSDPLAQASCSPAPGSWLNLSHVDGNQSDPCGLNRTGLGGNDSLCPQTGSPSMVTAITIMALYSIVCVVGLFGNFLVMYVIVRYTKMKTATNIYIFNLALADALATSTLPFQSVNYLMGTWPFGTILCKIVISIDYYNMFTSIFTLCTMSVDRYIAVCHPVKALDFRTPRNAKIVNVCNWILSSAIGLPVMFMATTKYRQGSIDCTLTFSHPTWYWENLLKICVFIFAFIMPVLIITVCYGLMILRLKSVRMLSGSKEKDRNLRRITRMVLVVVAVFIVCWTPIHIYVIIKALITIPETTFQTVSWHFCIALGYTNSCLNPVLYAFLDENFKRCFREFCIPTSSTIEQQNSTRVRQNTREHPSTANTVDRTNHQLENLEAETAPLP
T2 sequence (P36544 23-502, one chain of several): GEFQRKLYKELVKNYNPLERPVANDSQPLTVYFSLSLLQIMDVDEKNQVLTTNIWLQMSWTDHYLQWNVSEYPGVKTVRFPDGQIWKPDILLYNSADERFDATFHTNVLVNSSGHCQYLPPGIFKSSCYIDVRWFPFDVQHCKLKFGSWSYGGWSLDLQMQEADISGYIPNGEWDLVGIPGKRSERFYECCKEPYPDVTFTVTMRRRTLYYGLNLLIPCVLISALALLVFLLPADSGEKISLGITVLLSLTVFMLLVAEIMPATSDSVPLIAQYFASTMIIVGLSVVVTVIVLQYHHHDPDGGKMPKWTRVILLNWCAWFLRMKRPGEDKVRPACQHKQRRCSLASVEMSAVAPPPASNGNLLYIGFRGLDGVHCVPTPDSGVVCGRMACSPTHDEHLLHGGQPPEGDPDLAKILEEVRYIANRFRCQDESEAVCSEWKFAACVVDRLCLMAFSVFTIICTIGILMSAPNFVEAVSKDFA

**Q.** Which “Percent Binding Inhibition (FITC-NLX binding)” value [1] does the source give for `C=CCN1CC[C@]23c4c5ccc(O)c4O[C@H]2C(=O)CC[C@@]3(O)[C@H]1C5` [Naloxone, naloxone] here?
**A.** 39.87% and 46.29% and 50.91%

**Q.** For `CC(=O)c1ccc(S(=O)(=O)N2CCC3(CC2)NC(=O)CO3)cc1` [Compound C0087], which “α7nAChR-FLNA association (ratio α7nAChR/FLNA)” value (α7nAChR-FLNA complex [2]) is on record?
**A.** reduce α7nAChR-FLNA association

**Q.** How did the “Aβ42 effect, %” value (α7nAChR-FLNA complex [3]) turn out when `O=C(N[C@H]1CN2CCC1CC2)c1ccc(Cl)cc1` [PNU282987] was run?
**A.** 8.9 ± 3.9%

**Q.** What about the FLNA/α7nAChR ratio (α7nAChR-FLNA complex [3]) of the same compound?
**A.** 0.12 ± 0.02

**Q.** What about the “FLNA/α7nAChR ratio (stimulation vs vehicle, %)” value (α7nAChR-FLNA complex [3]) of the same compound?
**A.** (87.1 ± 37.9) %

**Q.** Which “α7nAChR-FLNA association (ratio α7nAChR/FLNA)” value (α7nAChR-FLNA complex [2]) does the source give for `O=C1CNC2(CCN(C(=S)Nc3cccnc3)CC2)N1Cc1ccccc1` [Compound B] here?
**A.** statistically different from Aβ42 alone

**Q.** Which results are given for `C=CCN1CC[C@]23c4c5ccc(O)c4O[C@H]2C(=O)CC[C@]3(O)[C@H]1C5` [(+) NLX, (+)naloxone]?
**A.** Percent binding inhibition, preliminary study ([1]; 0.1 nM compound): 22.7%; Percent binding inhibition, preliminary study ([1]; 1 nM compound): 22.8%; Percent binding inhibition, preliminary study ([1]; 10 nM compound): 23.1%; Percent binding inhibition, preliminary study ([1]; 100 nM compound): 22.8%; Percent binding inhibition, preliminary study ([1]; 1 μM compound): 39.8%

**Q.** Which “α7nAChR-FLNA association (ratio α7nAChR/FLNA)” value (α7nAChR-FLNA complex [2]) does the source give for `Cc1ccc(S(=O)(=O)N2CCOC23CCN(CC2CC2)CC3)cc1` [Compound C0134] here?
**A.** statistically different from Aβ42 alone

**Q.** How did the “% DAMGO (0.1 μM)” value (mu opiate receptor (MOR)) turn out when `COc1c2c(cc3c1C(CC(O)Cc1ccccc1C)N(C)CC3)OCO2` (centres unmarked) [Compound B0054] was run?
**A.** 93.4%

**Q.** And the “% DAMGO (1 μM)” value (mu opiate receptor (MOR))?
**A.** 85.3%

**Q.** And the “% DAMGO + BFNA” value (mu opiate receptor (MOR))?
**A.** 668.7%

**Q.** And the “Concentration of FLNA-Binding Compound as Agonist 0.1 μM” value (mu opiate receptor (MOR); [35S]GTPγS binding to Gαo in striatal membranes, compound 0.1 μM)?
**A.** 157.8%

**Q.** And the “Concentration of FLNA-Binding Compound as Agonist 1 μM” value (mu opiate receptor (MOR); [35S]GTPγS binding to Gαo in striatal membranes, compound 1 μM)?
**A.** 186.7%

**Q.** And the “Concentration of FLNA-Binding Compound as Agonist 1 μM + BFNA” value (mu opiate receptor (MOR); [35S]GTPγS binding to Gαo in striatal membranes, compound 1 μM plus 1 μM β-funaltrexamine (MOR antagonist))?
**A.** 111.0%

**Q.** What about the “Percent Binding Inhibition (FITC-NLX binding)” value ([1]; 0.01 μM FLNA-binding compound, 10 nM FITC-NLX) of the same compound?
**A.** 25.6%

**Q.** What about the “Percent Binding Inhibition (FITC-NLX binding)” value ([1]; 0.1 μM FLNA-binding compound, 10 nM FITC-NLX) of the same compound?
**A.** 32.6%

**Q.** What about the “Percent Binding Inhibition (FITC-NLX binding)” value ([1]; 1 μM FLNA-binding compound, 10 nM FITC-NLX) of the same compound?
**A.** 43.3%

**Q.** For `COc1ccc2c3c1O[C@H]1C[C@@H](O)C=C[C@@]31CCN(C)C2` [Galantamine, galantamine], which “FLNA/α7nAChR ratio (stimulation vs vehicle, %)” value (α7nAChR-FLNA complex [3]; 1 μM agent) is on record?
**A.** (17.1 ± 14.6) %

**Q.** And the “Aβ42 effect, %” value (α7nAChR-FLNA complex [3]; [4])?
**A.** 1.7 ± 1.5%

**Q.** For `O=S(=O)(c1ccc(OC(F)(F)F)cc1)N1CCOC12CCN(CC1CC1)CC2` [Compound 4], which “MOR agonist activity ([35S]GTPγS binding), compound as agonist” value (shortened to “MOR agonist activity … as agonist”) (mu opiate receptor (MOR); 0.1 μM, preliminary study) is on record?
**A.** 133.9%

**Q.** What about the “MOR agonist activity … as agonist” value (mu opiate receptor (MOR); 1 μM + βNFA, preliminary study) of the same compound?
**A.** 49.5%

**Q.** And the “MOR agonist activity … as agonist” value (mu opiate receptor (MOR); 1 μM, preliminary study)?
**A.** 165.2%

**Q.** What about the “MOR agonist activity (in words)” value (mu opiate receptor (MOR); preliminary study) of the same compound?
**A.** not as potent a MOR agonist

**Q.** And the “Binding to FLNA (in words)” value ([1]; preliminary study)?
**A.** bound well to FLNA

**Q.** How did the “Aβ42 effect, %” value (α7nAChR-FLNA complex [3]) turn out when `CN1CCCC1c1cccnc1` (centres unmarked) [Nicotine, nicotine] was run?
**A.** 11.0 ± 3.2%

**Q.** What about the FLNA/α7nAChR ratio (α7nAChR-FLNA complex [3]) of the same compound?
**A.** 0.13 ± 0.02

**Q.** And the “FLNA/α7nAChR ratio (stimulation vs vehicle, %)” value (α7nAChR-FLNA complex [3])?
**A.** (107.7 ± 31.4) %

**Q.** What does the source list for `CC12CC3CC(C)(C1)CC(N)(C3)C2` [Memantine, memantine]?
**A.** FLNA/α7nAChR ratio (stimulation vs vehicle, %) (α7nAChR-FLNA complex [3]; 1 μM agent): (225.9 ± 38.5) %; FLNA/α7nAChR ratio (α7nAChR-FLNA complex [3]; 1 μM agent, postmortem control frontocortical tissue): 0.21 ± 0.03; Aβ42 effect, % (α7nAChR-FLNA complex [3]; [4]): 23.0 ± 3.9%; FLNA recruitment to α7nAChRs (in words) (α7nAChR-FLNA complex [3]; postmortem control frontocortical tissue): elicited the recruitment of FLNA to α7nAChRs
